According to patent publication US20250090695A1, “IMMUNOSTIMULANT-CYTOTOXIC CONJUGATE COMPOSITION AND METHODS FOR CANCER TREATMENT” (The Research Foundation for the State University of New York, priority 2022, published 2025):

Columns and labels:
[1] = target: T1, PSMA (Homo sapiens, UniProt Q04609); conditions: clinical trials; cited from earlier work
T1 construct: This has been leveraged in clinical trials using the radiotherapeutic 117Lu-PSMA-617; host or cells: tumours of prostate cancer patients
T1 sequence (Q04609 whole entry): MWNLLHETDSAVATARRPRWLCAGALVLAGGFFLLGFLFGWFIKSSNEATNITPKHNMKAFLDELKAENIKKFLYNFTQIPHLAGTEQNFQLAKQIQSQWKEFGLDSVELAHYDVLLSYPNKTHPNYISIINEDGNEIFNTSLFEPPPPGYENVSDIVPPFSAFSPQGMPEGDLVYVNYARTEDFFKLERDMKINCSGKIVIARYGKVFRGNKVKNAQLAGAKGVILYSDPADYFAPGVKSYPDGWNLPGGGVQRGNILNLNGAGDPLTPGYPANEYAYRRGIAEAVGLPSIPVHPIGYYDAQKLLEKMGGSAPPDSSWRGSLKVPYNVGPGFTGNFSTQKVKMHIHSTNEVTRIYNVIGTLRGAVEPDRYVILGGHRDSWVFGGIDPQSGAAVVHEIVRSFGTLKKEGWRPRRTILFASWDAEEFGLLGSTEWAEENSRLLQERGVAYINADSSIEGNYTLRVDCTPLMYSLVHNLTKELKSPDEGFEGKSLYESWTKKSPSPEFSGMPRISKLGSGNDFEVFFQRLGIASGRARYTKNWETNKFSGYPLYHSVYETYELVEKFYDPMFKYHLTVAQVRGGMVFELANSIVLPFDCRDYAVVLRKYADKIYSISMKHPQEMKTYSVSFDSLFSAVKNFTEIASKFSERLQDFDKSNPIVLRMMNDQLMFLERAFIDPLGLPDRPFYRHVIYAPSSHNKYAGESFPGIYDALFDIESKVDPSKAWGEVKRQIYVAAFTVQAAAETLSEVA

[2] = Biodistribution in a syngeneic model of prostate cancer with a RM1-PGLS tumor; conditions: C57BL/6J mice
[3] = system: RM1-PGLS tumors; type: in vivo, murine subjects; conditions: overall survival post treatment; RM1-PGLS tumors; P < 0.0007 printed for 177Lu-RIMS-1
Method: FIG. 11A-11C show a visual schematic of RM1-PGLS tumor insertion in mice followed by T-cell population analysis (FIG. 11A), and tumor efficacy study analysis for in vivo tumor treatment with experimental ^177Lu-RIMS-1 compound compared with control compounds: ^177Lu-PSMA-617, unlabeled Lu-RIMS, and saline (FIG. 11B) measuring tumor volume (left), and percent survival (right).
Murine subjects were treated with RIMS compounds and tumor volume (FIG. 11B, left), subject viability measured as percent survival (FIG. 11B, right), subject weight (FIG. 11C), were described and analyzed as shown in FIGS. 11A-11C. Median overall survivability (OS) in murine subjects treated with RIMS compounds and control therapies.

[4] = system: T-cells (CD3); assay: Immuno-PET ROI analysis of 89Zr-DFO-anti-CD3 after therapy (tumor infiltrating T-cells); type: in vivo, murine subjects
Method: FIG. 13A-13C describes a method and results for T-cell detection using immuno-positron emission tomography (PET).
FIG. 14A-14D show graphical representations of tumor infiltrating T-cell analysis after administration of a therapeutic compound or control. Infiltration was measured using immuno-positron emission tomography (PET).

[5] = system: CD8+ and CD4+ T-cell populations; assay: T-cell population analysis in spleen and tumor of RM1-PGLS bearing mice; type: in vivo; set-up: unit not given here; conditions: RM1-PGLS bearing C57BL/6J mice
Method: FIG. 12A-12B show graphical representations of T-cell population analysis measuring cell viability in the spleen (FIG. 12A). and in the tumor (FIG. 12B) in vivo for subjects having RM1-PGLS tumors with either an experimental ^177Lu-RIMS compound, or a control compound selected from: ^177Lu-PSMA-617, unlabeled Lu-RIMS, or a control vehicle.
^177Lu-RIMS-1 and control compounds were evaluated for immune cell recruitment.

[6] = Biodistribution in a xenograft model of prostate cancer with PC-3 PiP (PSMA(+)) and PC-3 flu (PSMA(−)) tumors; type: in vivo, Male NCr nude mice; conditions: 2 h; PC-3 PiP/PC-3 flu xenograft, NCr nude mice
Method: Biodistribution analyses of ^177Lu-RIMS-1 and ^177Lu-PSMA-617 were carried out in a xenograft model of prostate cancer with a PC-3 PiP tumor (PSMA(+)) on the left shoulder of a murine subject, and a PC-3 flu tumor (PSMA(−)) on the right should of a murine subject. Murine subjects examined were Male NCr nude mice.

O=C([O-])CN1CCN(CC(=O)[O-])CCN(CC(=O)NCC2CCC(C(=O)N[C@@H](Cc3ccc4ccccc4c3)C(=O)NCCCC[C@H](NC(=O)N[C@@H](CCC(=O)O)C(=O)O)C(=O)O)CC2)CCN(CC(=O)[O-])CC1.[177Lu+3] (stereo partly drawn) [^177Lu-PSMA-617]
Non-responders among patients [1]: 30%
Biodistribution Blood (% ID/g ± SD) ([2]; 2 h): 0.03 ± 0.02 % ID/g
Biodistribution Bone (% ID/g ± SD) ([2]; 2 h): 0.05 ± 0.05 % ID/g
Biodistribution Heart (% ID/g ± SD) ([2]; 2 h): 0.03 ± 0.01 % ID/g
Biodistribution Kidney (% ID/g ± SD) ([2]; 2 h): 1.39 ± 0.48 % ID/g
Biodistribution Liver (% ID/g ± SD) ([2]; 2 h): 0.17 ± 0.12 % ID/g
Biodistribution Muscle (% ID/g ± SD) ([2]; 2 h): 0.05 ± 0.05 % ID/g
Biodistribution RM1-PGLS tumor (% ID/g ± SD) ([2]; 2 h): 0.80 ± 0.18 % ID/g
Biodistribution Sm Int (% ID/g ± SD) ([2]; 2 h): 0.03 ± 0.01 % ID/g
Biodistribution Spleen (% ID/g ± SD) ([2]; 2 h): 0.08 ± 0.03 % ID/g
Biodistribution Blood (% ID/g ± SD) ([2]; 24 h): 0.00 ± 0.00 % ID/g
Biodistribution Bone (% ID/g ± SD) ([2]; 24 h): 0.01 ± 0.01 % ID/g
Biodistribution Heart (% ID/g ± SD) ([2]; 24 h): 0.01 ± 0.00 % ID/g
Biodistribution Kidney (% ID/g ± SD) ([2]; 24 h): 0.09 ± 0.07 % ID/g
Biodistribution Liver (% ID/g ± SD) ([2]; 24 h): 0.02 ± 0.01 % ID/g
Biodistribution Muscle (% ID/g ± SD) ([2]; 24 h): 0.01 ± 0.01 % ID/g
Biodistribution RM1-PGLS tumor (% ID/g ± SD) ([2]; 24 h): 0.25 ± 0.09 % ID/g
Biodistribution Sm Int (% ID/g ± SD) ([2]; 24 h): 0.01 ± 0.01 % ID/g
Biodistribution Spleen (% ID/g ± SD) ([2]; 24 h): 0.02 ± 0.01 % ID/g
Biodistribution Blood (% ID/g ± SD) ([2]; 72 h): 0.01 ± 0.01 % ID/g
Biodistribution Bone (% ID/g ± SD) ([2]; 72 h): 0.01 ± 0.01 % ID/g
Biodistribution Heart (% ID/g ± SD) ([2]; 72 h): 0.01 ± 0.00 % ID/g
Biodistribution Kidney (% ID/g ± SD) ([2]; 72 h): 0.04 ± 0.01 % ID/g
Biodistribution Liver (% ID/g ± SD) ([2]; 72 h): 0.02 ± 0.01 % ID/g
Biodistribution Muscle (% ID/g ± SD) ([2]; 72 h): 0.01 ± 0.00 % ID/g
Biodistribution RM1-PGLS tumor (% ID/g ± SD) ([2]; 72 h): 0.18 ± 0.06 % ID/g
Biodistribution Sm Int (% ID/g ± SD) ([2]; 72 h): 0.02 ± 0.01 % ID/g
Biodistribution Spleen (% ID/g ± SD) ([2]; 72 h): 0.02 ± 0.01 % ID/g
Median OS [3]: 15 days
% Injected Dose/cc of 89Zr-DFO-anti-CD3 (ROI) ([4]; Blood, 8 days after administration of therapy): 8.94 ± 0.34 % Injected Dose/cc
% Injected Dose/cc of 89Zr-DFO-anti-CD3 (ROI) ([4]; Blood, 9 days after administration of therapy): 5.85 ± 2.22 % Injected Dose/cc
% Injected Dose/cc of 89Zr-DFO-anti-CD3 (ROI) ([4]; Blood, 10 days after administration of therapy): 4.13 ± 0.68 % Injected Dose/cc
% Injected Dose/cc of 89Zr-DFO-anti-CD3 (ROI) ([4]; Blood, 11 days after administration of therapy): 4.05 ± 1.24 % Injected Dose/cc
% Injected Dose/cc of 89Zr-DFO-anti-CD3 (ROI) ([4]; Blood, 12 days after administration of therapy): 4.26 ± 0.62 % Injected Dose/cc
% Injected Dose/cc of 89Zr-DFO-anti-CD3 (ROI) ([4]; Spleen, 8 days after administration of therapy): 21.55 ± 4.49 % Injected Dose/cc
% Injected Dose/cc of 89Zr-DFO-anti-CD3 (ROI) ([4]; Spleen, 9 days after administration of therapy): 24.84 ± 4.91 % Injected Dose/cc
% Injected Dose/cc of 89Zr-DFO-anti-CD3 (ROI) ([4]; Spleen, 10 days after administration of therapy): 27.09 ± 3.75 % Injected Dose/cc
% Injected Dose/cc of 89Zr-DFO-anti-CD3 (ROI) ([4]; Spleen, 11 days after administration of therapy): 23.82 ± 3.55 % Injected Dose/cc
% Injected Dose/cc of 89Zr-DFO-anti-CD3 (ROI) ([4]; Spleen, 12 days after administration of therapy): 24.65 ± 0.81 % Injected Dose/cc
% Injected Dose/cc of 89Zr-DFO-anti-CD3 (ROI) ([4]; Tumor, 8 days after administration of therapy): 10.27 ± 0.024 % Injected Dose/cc
% Injected Dose/cc of 89Zr-DFO-anti-CD3 (ROI) ([4]; Tumor, 9 days after administration of therapy): 7.83 ± 1.66 % Injected Dose/cc
% Injected Dose/cc of 89Zr-DFO-anti-CD3 (ROI) ([4]; Tumor, 10 days after administration of therapy): 6.67 ± 3.63 % Injected Dose/cc
% Injected Dose/cc of 89Zr-DFO-anti-CD3 (ROI) ([4]; Tumor, 11 days after administration of therapy): 3.90 ± 0.35 % Injected Dose/cc
% Injected Dose/cc of 89Zr-DFO-anti-CD3 (ROI) ([4]; Tumor, 12 days after administration of therapy): 2.72 ± 0.81 % Injected Dose/cc
Total CD4+ T-cell population ([5]; Spleen): 12.73 ± 2.17
Total CD8+ T-cell population ([5]; Spleen): 8.78 ± 1.61
Total CD4+ T-cell population ([5]; Tumor): 1.47 ± 0.59
Total CD8+ T-cell population ([5]; Tumor): 4.76 ± 1.40
Biodistribution Blood (% ID/g ± SD) [6]: 0.95 ± 0.53 % ID/g
Biodistribution Bone (% ID/g ± SD) [6]: 0.21 ± 0.11 % ID/g
Biodistribution Heart (% ID/g ± SD) [6]: 0.27 ± 0.12 % ID/g
